Measured values published in US20240019429A1, “METHODS AND RELATED ASPECTS FOR DETERMINING BINDING KINETICS OF LIGANDS” (ARIZONA BOARD OF REGENTS ON BEHALF OF ARIZONA STATE …, priority 2022, published 2024).
Each block holds one compound with its values, some of them ahead of it.

Assays:
[1] = biological target: KcsA-Kv1.3; experiment: SPR-OBL binding kinetics of small molecules to KcsA-Kv1.3 nanodisc on streptavidin OBL; details: AC response, 40 times diluted nanodisc buffer
Source text: Unlike macromolecules that are inclined to have both mass and charge changes upon binding, small molecules are more likely to have charge change with little mass change. As such, measuring charge could be more sensitive for small molecules. To highlight this advantage of SRR-OBL and its potential for drug screening, we measured two small molecule drug candidates, compound 1 and PAP-1, binding to their target KcsA-Kv1.3, which is a chimeric membrane protein. The KcsA-Kv1.3 was encapsulated in a self-assembled phospholipid bilayer nanodisc that provides a nativelike environment for the membrane proteins to retain the structure and function. Despite the importance of membrane protein as drug targets, measuring the interaction with small molecule drug candidates has been challenging for traditional mass-sensitive technologies, due to the huge mass difference between the small molecule and the membrane protein complex. Before adding samples, 40 times diluted nanodisc buffer was flowed over the surface for 200 seconds to establish the baseline. The binding of the small molecule to KcsA-Kv1.3 nanodisc caused a charge change on the OBL, which leads to an AC response. As mentioned before, small molecule would only introduce a minor mass change. Therefore, the DC response of OBL is not obvious. […] According to a previous study that temperature would influence the binding kinetics between KcsA-Kv1.3 and small molecule due to the effect on the flexibility of lipid bilayer, we repeated the experiment under 30° C. and found the kinetic constants became (2.7±0.5)×10^4 M^−1s^−1, (1.9±0.4)×10^−2 s^−1 and 6.8±1.2×10 2 nM, as shown in FIG. 6c. The results are close to the value in literature. […] To verify the binding was specific, we performed control experiments by directly injecting compound 1 and PAP-1 to a streptavidin OBL without nanodisc at 30° C.
Fabrication of OBL. The sensor chip (a cover glass coated with 43 nm Au) was rinsed by DI water and ethanol for twice. Then it was annealed by hydrogen flame to further remove surface contaminants. To fabricate the streptavidin OBL, the chip was first dipped in a mixture of 1 mM thiol-PEG2k and 100 μM thiol-PEG10k-bioitin in 1×PBS overnight. The chip was dried with N2 and a silicone cell was mounted on the chip surface for holding solution. Next, the surface was incubated in 0.2 mg/mL streptavidin in PBS for 30 mins. The functionalized surface was carefully rinsed with PBS for 6 times. Note that the solution should not be completely removed from the cell during the rinsing process, and any air bubbles should be avoided as well, because the tethered protein could be irreversibly absorbed on the surface once exposed to air. The surface coverage of streptavidin on the PEG layer was measured to be 64%, and 46% of the streptavidin could oscillate effectively. The streptavidin OBL was later used to couple biotinylated proteins. To couple KcsA-Kv1.3 nanodisc, 70 μg/mL biotinylated KcsA-Kv1.3 nanodisc in nanodisc buffer was added to the cell and incubated for 30 min. Similarly, the biotinylated SRCtide was immobilized on the streptavidin OBL by incubating in 33 μg/mL SRCtide in kinase buffer containing 5 mM MgCl2 and 1 mM HEPES (pH 7.4) for 30 mins.
(§1) Binding kinetics measurement.

[2] = biological target: T1, streptavidin OBL (Streptomyces avidinii, UniProt P22629); experiment: Control experiment: small molecules injected to streptavidin OBL without nanodisc; type: binding; details: streptavidin OBL without nanodisc at 30° C.
T1 construct: purchased Thermo Fisher Scientific
T1 sequence (P22629 37-163 limits assumed): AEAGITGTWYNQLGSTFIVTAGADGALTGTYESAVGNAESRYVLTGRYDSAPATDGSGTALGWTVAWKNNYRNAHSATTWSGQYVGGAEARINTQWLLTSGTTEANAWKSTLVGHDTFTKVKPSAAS
Source text: Unlike macromolecules that are inclined to have both mass and charge changes upon binding, small molecules are more likely to have charge change with little mass change. As such, measuring charge could be more sensitive for small molecules. To highlight this advantage of SRR-OBL and its potential for drug screening, we measured two small molecule drug candidates, compound 1 and PAP-1, binding to their target KcsA-Kv1.3, which is a chimeric membrane protein. The KcsA-Kv1.3 was encapsulated in a self-assembled phospholipid bilayer nanodisc that provides a nativelike environment for the membrane proteins to retain the structure and function. Despite the importance of membrane protein as drug targets, measuring the interaction with small molecule drug candidates has been challenging for traditional mass-sensitive technologies, due to the huge mass difference between the small molecule and the membrane protein complex. Before adding samples, 40 times diluted nanodisc buffer was flowed over the surface for 200 seconds to establish the baseline. The binding of the small molecule to KcsA-Kv1.3 nanodisc caused a charge change on the OBL, which leads to an AC response. […]
(§2) Fabrication of OBL. […] The surface coverage of streptavidin on the PEG layer was measured to be 64%, and 46% of the streptavidin could oscillate effectively. […]

[3] = biological target: T2, calmodulin (Homo sapiens, UniProt P0DP23); experiment: SPR-OBL equilibrium analysis of ion binding to calmodulin OBL; details: equilibrium analysis of AC response, 100 times diluted PBS buffer
T2 construct: purchased Sigma Aldrich
Source text: Calmodulin is a calcium sensing protein that plays a central role in cell signaling, muscle contraction and cell division. We fabricated a calmodulin OBL and flowed different concentrations of Ca^2+ over the surface. The binding of Ca^2+ to calmodulin would lead to charge and conformation change of the OBL but with small mass change (FIG. 7a). […] Thus, we only measured the magnitude of the equilibrium state. […] We note that calmodulin is negatively charged, so Ca^2+ binding should decrease the amplitude of the AC signal. The increase of AC signal in FIG. 7b is due to artifacts in data processing when correcting the background charging. The raw data has decreased signal but much lower signal-to-noise ratio (not shown). Magnesium would also bind to calmodulin with a lower affinity compared with calcium.
as §1

[4] = biological target: T3, Src kinase (Homo sapiens, UniProt P12931); experiment: SPR-OBL phosphorylation kinetics of SRCtide by Src kinase; type: biochemical; details: ATP present
T3 construct: The active full length SRC protein was purchased from Abcam; purchased Abcam
Source text: Since SPR-OBL is able to record mass and charge changes at the same time, it is particularly suitable for studying complex enzymatic processes that involve multiple kinetic steps and size and charge changes. Phosphorylation is one of such reactions that includes binding of the kinase to the substrate, adding a phosphate to the substrate, and unbinding of the kinase, where each step accompanies mass or charge change. Despite the importance of phosphorylation in many basic cellular signaling processes and its close relationship with various diseases and cancers, traditional techniques including fluorescence, western blot, and mass spectrometry are unable to resolve the kinetic process in real-time, and each kinetic step needs to be measured separately, limiting the measurement efficiency. In contrast, SPR-OBL can measure multiple steps of the enzyme catalytic reaction in real-time and extract several kinetic parameters in a single measurement. We studied the phosphorylation of SRCtide as an example. SRCtide that was a peptide containing 14 amino acid with the sequence GEEPLYWSFPAKKK (SEQ ID NO: 1) was modified on a streptavidin OBL, which serves as the substrate of the enzyme Src kinase. […]
where E and S are the enzyme and substrate, ES is the complex, and P is the phosphorylated product, respectively; and k denotes the kinetic constant in each step. We measured the SPR-OBL response of different concentrations of Src in the presence of ATP and the results are shown in FIG. 8b. […]
where [E0], [S0] and [P] are concentration of SRC, SRCtide and the product, respectively. The Michaelis constant (KM) and catalytic constant (k2) can be determined to be 4.4 nM and 5.5×10^−4 s^−1 by fitting the AC component (FIG. 8d) to Eq. 1. Knowing KM and k2 the association rate constant (k1) and dissociation rate constant (k−1) can be determined by fitting the DC component (FIG. 8c) to the following equations: […]
as §2

Compound: O=c1ccc2c(OCCCCOc3ccccc3)c3ccoc3cc2o1 [PAP-1]
- Kd ([1]; 25° C.): 65 ± 11 µM
- ka ([1]; 25° C.): (3.8±0.6)×10^2 M^−1 s^−1
- kd ([1]; 25° C.): (2.3±0.1)×10^−2 s^−1
- Kd ([1]; 30° C.): 210 µM
- ka ([1]; 30° C.): (4.8±0.4)×10^2 M^−1s^−1
- kd ([1]; 30° C.): (9.6±1.1)×10^−2 s^−1
- response on streptavidin OBL (nonspecific binding control) [2]: only small response

- Kd [3]: 1.9 µM
Compound: [Ca+2] [Ca^2+, calcium ion]

- catalytic constant (k2) ([4]; fit of AC component to Eq. 1 (EQSS)): 0.00055 s⁻¹
- association rate constant (k1) ([4]; fit of DC component): 1.3×10^4
- dissociation rate constant (k−1) ([4]; fit of DC component): 2e-06 s⁻¹
Compound: SRCtide: peptide containing 14 amino acid with the sequence GEEPLYWSFPAKKK (SEQ ID NO: 1), substrate of Src kinase

- Kd [3]: 35 µM
Compound: [Mg+2] [Mg^2+, Magnesium]
